This assay relates to SKBR-3 cell line (human breast cancer). Kind of assay: Cytotoxicity Assay (Cell titer glo, 72 h), SKBR-3. In kind it is cell-based. The conditions noted are these: for IC50: Homo sapiens, SK-BR-3, free payloads, 72 hours; for Normalized IC50 (PL IC50/DXD IC50): ratio of payload IC50 to DXD control IC50. As for the experimental part:
Day 1: 2,000 cells/well were plated and incubated at 37° C. overnight.
Day 2: Payload/ADC/vehicle control dilutions were made in respective media and added to cells. Volume added: 50 uL to each well. Starting treatment concentration was 1 mM for free payloads/1 μM for ADC's/10% for vehicle control and then diluted 10-fold down for a total of 11 treatment dilutions. Each concentration was analyzed in triplicates. Media-only wells were used as a control to calculate percent viability.
Day 5: Cell titer glow reagent (volume: 50 uL) was added to each well, the plate was shaken for 5 mins and the luminescence was recorded. Drug Treatment Time: 72 hours. Data Analysis: Percent viability was calculated by dividing the luminescence signal obtained for each treated well by the untreated well (media-only control) and multiplying by 100. Data was next transformed using X=Log (x) and then analyzed with nonlinear regression (curve fit), Dose Response inhibition−log (inhibitor) vs response (3 parameters) using PRISM software to determine the IC50 value.

`CC[C@@]1(O)C(=O)OCc2c1cc1n(c2=O)Cc2c-1nc1cc(F)c(C)cc1c2Cn1cc(-c2ccccc2N)nn1` [Payload 19]: the IC50 was found to be 22.4 nM and the “Normalized IC50 (PL IC50/DXD IC50)” value amounted to 4.96. For `CC[C@@]1(O)C(=O)OCc2c1cc1n(c2=O)Cc2c-1nc1cc(F)c(C)cc1c2Cn1cc(CN2CCN(C(=O)CO)CC2)nn1` [Payload 60] the same measures were 284 nM and 338.2. On the same counts, the results for `CC[C@@]1(O)C(=O)OCc2c1cc1n(c2=O)Cc2c-1nc1cc(F)c(C)cc1c2Cn1cc(C(C)N)nn1` (some centres unmarked) [Payload 50] are 18.6 nM and 3.72. For `CC[C@@]1(O)C(=O)OCc2c1cc1n(c2=O)Cc2c-1nc1cc(F)c(C)cc1c2Cn1cc(C2(NC(=O)CO)CC2)nn1` [Payload 63] the same measures were 41 nM and 44.21.

In the case of `CC[C@@]1(O)C(=O)OCc2c1cc1n(c2=O)Cc2c-1nc1cc(F)c(C)cc1c2Cn1cc(CCCN)nn1` [Payload 53], inhibition was half-maximal at 18 nM (IC50) and the “Normalized IC50 (PL IC50/DXD IC50)” value amounted to 3.60. For the compound `CC[C@@]1(O)C(=O)OCc2c1cc1n(c2=O)Cc2c-1nc1cc(F)c(C)cc1c2Cn1cc(CCNC)nn1` [Payload 37], inhibition was half-maximal at 50.8 nM (IC50) and the “Normalized IC50 (PL IC50/DXD IC50)” value is recorded as 3.32. For `CC[C@@]1(O)C(=O)OCc2c1cc1n(c2=O)Cc2c-1nc1cc(F)c(C)cc1c2Cn1nncc1CO` [Payload 3] the same measures were 107 nM and 11.97. As to `CC[C@@]1(O)C(=O)OCc2c1cc1n(c2=O)Cc2c-1nc1cc(F)c(C)cc1c2Cn1cc(CCNC(=O)CO)nn1` [Payload 38], the IC50 is 34.6 nM and the “Normalized IC50 (PL IC50/DXD IC50)” value is listed as 37.23. On the same counts, the results for `CC[C@@]1(O)C(=O)OCc2c1cc1n(c2=O)Cc2c-1nc1cc(F)c(C)cc1c2Cn1cc(-c2ccc(NC(=O)CO)cc2)nn1` [Payload 15] are 25.8 nM and 27.79. On the same counts, the results for `CC[C@@]1(O)C(=O)OCc2c1cc1n(c2=O)Cc2c-1nc1cc(F)c(C)cc1c2Cn1cc(CCCNC(=O)CO)nn1` [Payload 68] are 17.6 nM and 19.01. For `CC[C@@]1(O)C(=O)OCc2c1cc1n(c2=O)Cc2c-1nc1cc(F)c(C)cc1c2Cn1cc(CNC(=O)OC(C)(C)C)nn1` [Payload 4] the same measures were 126 nM and 14.03. As to `CC[C@@]1(O)C(=O)OCc2c1cc1n(c2=O)Cc2c-1nc1cc(F)c(C)cc1c2Cn1cc(CNC)nn1` [Payload 6], the IC50 came out at 690 nM and the “Normalized IC50 (PL IC50/DXD IC50)” value stood at 94.92. For `CC[C@@]1(O)C(=O)OCc2c1cc1n(c2=O)Cc2c-1nc1cc(F)c(C)cc1c2Cn1cc(CN2CCOC(CNC(=O)CO)C2)nn1` (some centres unmarked) [Payload 62] the same measures were 2040 nM and 1714.88. As for `CC[C@@]1(O)C(=O)OCc2c1cc1n(c2=O)Cc2c-1nc1cc(F)c(C)cc1c2Cn1cc(C2CCCN2)nn1` (some centres unmarked) [Payload 57], the IC50 is 18.3 nM and the “Normalized IC50 (PL IC50/DXD IC50)” value is 12.80. For `CC[C@@]1(O)C(=O)OCc2c1cc1n(c2=O)Cc2c-1nc1cc(F)c(C)cc1c2Cn1cc(-c2ccc(N)cc2)nn1` [Payload 13] the same measures were 30.8 nM and 6.84. On the same counts, the results for `CC[C@@]1(O)C(=O)OCc2c1cc1n(c2=O)Cc2c-1nc1cc(F)c(C)cc1c2Cn1cc(-c2ccccc2NC(=O)CN)nn1` [Payload 66] are 54.7 nM and 3.58. On the same counts, the results for `CC[C@@]1(O)C(=O)OCc2c1cc1n(c2=O)Cc2c-1nc1cc(F)c(C)cc1c2Cn1cc(-c2cc(F)cnc2N)nn1` [Payload 46] are 3.68 nM and 0.24. Regarding `CC[C@@]1(O)C(=O)OCc2c1cc1n(c2=O)Cc2c-1nc1cc(F)c(C)cc1c2Cn1cc(-c2cccnc2N)nn1` [Payload 49], the midpoint of inhibition, the IC50, lay at 8.14 nM and the “Normalized IC50 (PL IC50/DXD IC50)” value was 1.30.

For `CC[C@@]1(O)C(=O)OCc2c1cc1n(c2=O)Cc2c-1nc1cc(F)c(C)cc1c2Cn1cc(CN2CCNCC2)nn1` [Payload 22], half-maximal inhibition (IC50) required 102 nM and the “Normalized IC50 (PL IC50/DXD IC50)” value is reported as 20.02.

As to `CC[C@@]1(O)C(=O)OCc2c1cc1n(c2=O)Cc2c-1nc1cc(F)c(C)cc1c2Cn1cc(CN2CCC(CO)CC2)nn1` [Payload 23], the IC50 amounted to 1250 nM and the “Normalized IC50 (PL IC50/DXD IC50)” value was 199.52. For `CC[C@@]1(O)C(=O)OCc2c1cc1n(c2=O)Cc2c-1nc1cc(F)c(C)cc1c2Cn1cc(CNC(=O)CN)nn1` [Payload 32] the same measures were 336 nM and 21.94.

In the case of `CC[C@@]1(O)C(=O)OCc2c1cc1n(c2=O)Cc2c-1nc1cc(F)c(C)cc1c2Cn1cc(CN)nn1` [Payload 5], the IC50 came out at 81.5 nM and the “Normalized IC50 (PL IC50/DXD IC50)” value worked out at 18.99. For `CC[C@@]1(O)C(=O)OCc2c1cc1n(c2=O)Cc2c-1nc1cc(F)c(C)cc1c2Cn1cc(-c2ccc(NC(=O)CN)cc2)nn1` [Payload 67] the same measures were 9.15 nM and 0.60.

Turning to `CC[C@@]1(O)C(=O)OCc2c1cc1n(c2=O)Cc2c-1nc1cc(F)c(C)cc1c2Cn1cc(-c2ccc(N)nc2)nn1` [Payload 52], inhibition was half-maximal at 18 nM (IC50) and the “Normalized IC50 (PL IC50/DXD IC50)” value turned out to be 2.88. On the same counts, the results for `CC[C@@]1(O)C(=O)OCc2c1cc1n(c2=O)Cc2c-1nc1cc(F)c(C)cc1c2Cn1cc(CCN)nn1` [Payload 36] are 1010 nM and 203.63. On the same counts, the results for `CC[C@@]1(O)C(=O)OCc2c1cc1n(c2=O)Cc2c-1nc1cc(F)c(C)cc1c2Cn1nncc1CN` [Payload 8] are 16.5 nM and 1.84. On the same counts, the results for `CC[C@@]1(O)C(=O)OCc2c1cc1n(c2=O)Cc2c-1nc1cc(F)c(C)cc1c2Cn1nncc1CNC` [Payload 9] are 94.6 nM and 13.01.

Regarding `CC[C@@]1(O)C(=O)OCc2c1cc1n(c2=O)Cc2c-1nc1cc(F)c(C)cc1c2Cn1cc(CN2CCCC(CO)C2)nn1` (some centres unmarked) [Payload 56], the midpoint of inhibition, the IC50, lay at 10.1 nM and the “Normalized IC50 (PL IC50/DXD IC50)” value is 7.05. On the same counts, the results for `CC[C@@]1(O)C(=O)OCc2c1cc1n(c2=O)Cc2c-1nc1cc(F)c(C)cc1c2Cn1nnc(CO)c1CO` [Payload 12] are 374 nM and 41.69.

Take `CC[C@@]1(O)C(=O)OCc2c1cc1n(c2=O)Cc2c-1nc1cc(F)c(C)cc1c2Cn1cc(COC2CCCCO2)nn1` (some centres unmarked) [Payload 1]: the IC50 was determined as 77.8 nM and the “Normalized IC50 (PL IC50/DXD IC50)” value amounted to 8.67. In turn, `CC[C@@]1(O)C(=O)OCc2c1cc1n(c2=O)Cc2c-1nc1cc(F)c(C)cc1c2Cn1cc(-c2cccc(N)n2)nn1` [Payload 48] returned an IC50 of 40.2 nM. For `CC[C@@]1(O)C(=O)OCc2c1cc1n(c2=O)Cc2c-1nc1cc(F)c(C)cc1c2Cn1cc(C(C)(C)N)nn1` [Payload 51], the midpoint of inhibition, the IC50, lay at 15.3 nM and the “Normalized IC50 (PL IC50/DXD IC50)” value is 3.05.

In the case of `CC[C@@]1(O)C(=O)OCc2c1cc1n(c2=O)Cc2c-1nc1cc(F)c(C)cc1c2Cn1cc(CN2CCCCC2CO)nn1` (some centres unmarked) [Payload 54], it took 8.94 nM to reach half-maximal inhibition (IC50) and the “Normalized IC50 (PL IC50/DXD IC50)” value is 6.24.

For the origin of these results see patent US20260315612A1, “Topoisomerase Inhibitors, Methods of Making, and Methods of Use Thereof” (NJ Bio, Inc., priority 2023, published 2026).
